{
  "source": "patent US20210270843A1",
  "about": "“Immune Monitoring of Neuro-Inflammatory Amyotrophic Lateral Sclerosis (ALS)” (RAPA THERAPEUTICS, LLC, priority 2018, published 2021)",
  "molecules": {"B1": {"name": "rhu CD40L: recombinant human (rhu) CD40L molecule (protein, UniProt P29965 113-261, looked up)", "CD40 ligand, soluble form": "MQKGDQNPQIAAHVISEASSKTTSVLQWAEKGYYTMSNNLVTLENGKQLTVKRQGLYYIYAQVTFCSNREASSQAPFIASLCLKSPGRFERILLRAANTHSSAKPCGQQSIHLGGVFELQPGASVFVNVTDPSQVSHGTGFTSFGLLKL"}},
  "key": {"[1]": {"tested_on": "peripheral blood mononuclear cells from ALS patient", "assay": "Autonomous cytokine secretion of ALS patient PBMC before and during etanercept therapy", "format": "in vivo, human", "settings": "etanercept 50 mg per week s.c., PBMC incubated 24 hr without stimulation, similar on three values over three months", "description": "We have observed that ALS patients can manifest autonomous inflammatory cytokine secretion when incubation of T cell- and monocyte-containing inoculum occurs for 24 hours in X-Vivo 20 media supplemented only with 5% human serum (FIG. 3). FIG. 3 depicts ALS patient and normal control autonomous cytokine secretion. ALS patient (“ALS”) and normal control (“NC”) peripheral blood mononuclear cells were either not separated (FIG. 3, right panel; mixture of T cells and monocytes), or separated into CD14^+ monocyte cells (FIG. 3, left panel) or CD3^+ T cells (FIG. 3, middle panel). The cells were incubated for 24 hours in media without any stimulation additives. After 24 hours, the supernatant was harvested and tested for cytokine content; TNF-α content is shown, with result described as pg per ml per 1×10^6 cells per 24 hours. […]\nWe reasoned that detection of autonomous secretion of inflammatory cytokines will have potential clinical implications, for example, in the monitoring of ALS disease response to investigational therapy. Towards this aim, we evaluated cytokine secretion in an ALS patient prior to and then after experimental therapy with the anti-TNF-α soluble recombinant receptor, etancercept (Enbrel®); there have been no reports of clinical trials evaluating etanercept therapy of ALS. […]"}, "[2]": {"tested_on": "T cell receptor repertoire", "assay": "RNA-based T cell receptor repertoire sequencing of ALS patient PBMC pre- and post-etanercept therapy"}, "[3]": {"tested_on": "PBMC", "assay": "CD40 ligand-driven cytokine secretion of PBMC (24 h culture, multiplex assay)", "format": "cell-based", "settings": "X-Vivo 20 media with 5% human serum", "source_text": "Given this possibility, we evaluated whether simple addition of the recombinant human (rhu) CD40L molecule might uncover autonomous inflammatory cytokine secretion in ALS patients. There are no reports in the literature to date pertaining to CD40L-stimulation of ALS patient PBMC. […] Therefore, the detection of the inflammatory subset of ALS can be expanded by inclusion of patients that secrete cytokines autonomously and those patients that secrete inflammatory cytokines after CD40L stimulation. Patient hypersensitivity to CD40 ligand is driven by an imbalance in the post-CD40 receptor signaling pathway, with increased TRAF6 contribution to the signaling cascade during neuro-inflammation; importantly, the TRAF2 and TRAF3 family members inhibit post-CD40 signaling. As such, given this information, our monitoring method will also include Western Blot analyses for the detection of ALS patient balance of the TRAF family of proteins.\nIn FIG. 6, a sibling of a subject who was a carrier for the C9orf72 mutation was evaluated for autonomous cytokine secretion. […] This illustrates the importance of both neurologic and immunologic risk factors. […]"}, "[4]": {"settings": "individual clones, post- versus pre-etanercept"}},
  "note": "Values joined by “and” are separate entries in the source; they are usually repeats but may differ in a detail not shown here. Equal values may be shown once.",
  "data": [
    {"molecule": "etanercept", "values": [
      {"measurement": "autonomous secretion of IL-6", "setting": "[1]", "value": "reduced"},
      {"measurement": "autonomous secretion of TNF-α", "setting": "[1]", "value": "reduced"},
      {"measurement": "TCR clonality, Diversity Index (CHAOE) after therapy", "setting": "[2]; ALS patient post-therapy, pre-therapy sample approximately 650,000, normal controls ~300,000", "value": "approximately 599,000"},
      {"measurement": "reduction in TCR clonality in post-therapy sample", "setting": "[2]; ALS patient, post- versus pre-therapy", "value": "~10", "unit": "%"},
      {"measurement": "T cell clonal contraction", "setting": "[2]; [4]", "value": "more than 4 log and ~4 log"},
      {"measurement": "T cell clonal expansion", "setting": "[2]; [4]", "value": "more than 4 log and ~4 log"},
      {"measurement": "post-treatment frequency of contracted T cell clones", "setting": "[2]; several clones, pre-etanercept frequencies 259 to 598", "value": 0.01}
    ]},
    {"molecule": "B1", "values": [
      {"measurement": "inflammatory cytokine production", "setting": "[3]; PBMC from an ALS patient", "value": "can induce inflammatory cytokine production"},
      {"measurement": "cytokine secretion after stimulation with CD40L", "setting": "[3]; PBMC from sibling of a C9orf72 mutation carrier", "value": "high levels of cytokine secretion"}
    ]}
  ]
}
